Entries after “also recorded” stand apart in the source; their conditions may differ.
Tests used:
IL-17 = assay: Generation of IL-17 by TCR-stimulated T cells (cytokine ELISA); type: cell-based, human; details: FIG. 5C
Description: (§1) FIGS. 5A-5C. Concentration-dependence of effects of certain compounds on human T cell generation of cytokines. Each column and bar depicts the mean±S.D. of the results of cytokine ELISAs of supernates from T cells of a total of four healthy subjects, of whom two were young and two were old, after three days of incubation with anti-CD3+ anti-CD28 antibodies without (control=100%) and with a drug. The mean±S.D. of control (100%) values for IFN-γ, IL-2 and IL-17, respectively, where 30,915±11,206, 5.8±3.4 and 1149±372 pg/ml. A=IFN-γ, B=IL-2 and C=IL-17. Statistical significance of differences from the controls without an IMD was calculated by a two-sample t test and indicated by + for p<0.05,*for p<0.01 and**for p<0.001.
No compound was capable of enhancing TCR-stimulated T cell generation of IL-17. However, there was significant inhibition of generation of IL-17 by dithiolenalidomide at 0.1 μM and higher, lenalidomide at 0.3 μM and higher, dithiothalidomide at 3 μM and higher, and thalidomide only at 100 μM (FIG. 5C). None of the thalidomide-type drugs altered cytokine generation alone in the absence of TCR-directed stimulation (data not shown).

IL-2 = assay: Generation of IL-2 by TCR-stimulated T cells (cytokine ELISA); type: cell-based, human; details: FIG. 5B; for concentration at which significant inhibition of IL-2 generation begins: stimulated T cells
Description: as §1
(§2) The capacity of several different compounds to alter the generation of three distinct immune cytokines by TCR-stimulated T cells of young and old subjects was investigated.

TNF-α protein = TNF-α protein assay (ELISA) in LPS stimulated RAW 264.7 culture media; type: cell-based, mouse; details: LPS stimulated RAW 264.7 cells; vs DMSO control
Description: TNF-α protein levels were measured by use of an ELISA specific for mouse TNF-α protein (BioLegend, San Diego, Calif.), O.D.s measured at 450 nm λ, obtained from the unknown samples were compared to a TNF-α protein standard curve (7.8 to 500 pg/ml) and the calculated TNF-α levels are expressed as a % change from their appropriate control or as pg/ml.

[1] = test system: LPS stimulated RAW 264.7 cells; assay: Cellular proliferation/health, MTS assay; type: cell-based; details: for cell stress (changes in O.D. values of the MTS assay): FIG. 4
Description: The CellTiter 96 AQueous One Solution Cell Proliferation Assay (Promega, Madison, Wis.) is routinely used as an assay of cell proliferation, and was used herein, according to the manufacturer's recommendations. […] Optical densities were measured after 1 to 2 hours incubation and were expressed as a % change from their appropriate control.

IFN-γ = assay: Generation of IFN-γ by TCR-stimulated T cells (cytokine ELISA); type: cell-based, human; details: FIG. 5A; for concentration at which significant inhibition of IFN-γ generation begins: TCR-stimulated T cells
Description: as §1, §2

nitrite = assay: Nitrite levels, Griess Reagent System assay; type: cell-based; details: LPS stimulated RAW 264.7 media; FIG. 3
Description: Nitrite levels in the culture media were measured by use of the Griess Reagent System (Promega, Madison, Wis.), following the manufacturer's protocol. The O.D. of unknown samples was read at 520 nm A, compared to a sodium nitrite standard curve (1.5 μM to 100 μM) and nitrite measured media concentrations expressed as a % change from their appropriate control.

RAW 264.7 cells = assay: Cellular toxicity, lactate dehydrogenase (LDH) assay; type: cell-based; details: from 60 min after addition of LPS, vs DMSO control, FIG. 1

Row | Compound | concentration at and above which IL-17 generation is significantly inhibited (IL-17) [µM] | concentration at which significant inhibition of IL-2 generation begins (IL-2) [µM] | levels of TNF-α protein in cell culture media (TNF-α protein) | cellular stress (MTS assay) ([1]; concentrations that far exceed 20 μM, LPS stimulated RAW 264.7 cells, FIG. 3) | toxicity compared to dithiothalidomide ([1]; particularly at drug concentrations or 10 μm or greater) | concentration at which significant inhibition of IFN-γ generation begins (IFN-γ) [µM] | levels of nitrite in cell culture media (nitrite) | cellular stress (O.D. values, LDH assay) (RAW 264.7 cells) | cellular health (MTS assay), relative to 100% control ([1]; 20 μM, LPS stimulated RAW 264.7 cells, FIG. 3) | cellular stress (MTS assay) ([1]; 20 μM, LPS stimulated RAW 264.7 cells, vs DMSO control, FIG. 3) | mean maximal enhancement of IL-2 generation (IL-2; at 1 μM, mixed group of young and old subjects) [fold] | cell stress (changes in O.D. values of the MTS assay) [1] | peak enhancement of IFN-γ generation (IFN-γ; at 3 μM) | effect on IL-2 generation (IL-2; at up to 100 μM) | inhibition of IFN-γ generation (IFN-γ; at 100 μM)
1 | Nc1cccc2c1CN(C1CCC(=S)NC1=O)C2=S (stereo not drawn) [dithiolenalidomide, 1,6′-Dithiolenalidomide] | ≥ 0.1 | ≥ 3 | retained TNF-α inhibitory effect; also recorded: reduced the levels of TNF-α protein | failed to induce any cellular stress | less toxic compared to dithiothalidomide | ≥ 1 | reduced the levels of nitrite | no evidence of cellular stress | – | – | – | – | – | – | –
2 | O=C1NC(=S)CCC1N1C(=O)c2ccccc2C1=S (stereo not drawn) [dithiothalidomide, 3,6′-Dithiothalidomide] | ≥ 3 | ≥ 30 | reduced the levels of TNF-α protein | – | – | ≥ 3 | reduced the levels of nitrite | evidence of cellular stress | reduction from the 100% control values | evidence of cellular stress | – | – | – | – | –
3 | Nc1cccc2c1CN(C1CCC(=O)NC1=O)C2=O (stereo not drawn) [lenalidomide] | ≥ 0.3 | – | – | – | – | – | – | – | – | – | 9.5 | Neither thalidomide and lenalidomide treatment induced any cell stress | nearly three-fold | – | –
4 | O=C1CCC(N2C(=O)c3ccccc3C2=O)C(=O)N1 (stereo not drawn) [thalidomide, N-α-phthalimidoglutarimide] | 100 | – | – | – | – | – | – | – | – | – | – | Neither thalidomide and lenalidomide treatment induced any cell stress | – | no detectable effect | only modest inhibition

— patent publication US10220028B2, “Thio compounds” (The United States of America, as represented by the …, priority 2011, dated 2019)
